Results as given in ChEMBL document CHEMBL1201862, “PubChem BioAssay data set” (2004).
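Values below derive from 48-hour exposures of cells grown in 96-well plates, with endpoints linearly interpolated between the two concentrations bracketing the appropriate inhibition level. GI50 marks 50% less growth.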 The source made the active and inactive calls. Rule as the data show it: active = GI50 up to about 1.1 µM and inactive = higher.

Columns and labels:
Assay in all cases: growth of human tumour cells (NCI), 48 h
KM-20L2 = test system: KM-20L2
IGROV-1 = test system: IGROV-1
K562 = test system: K562
SF-539 = test system: SF-539
XF498 = test system: XF498
SK-MEL-28 = test system: SK-MEL-28
NCI-H23 = test system: NCI-H23
ACHN = test system: ACHN
LOX IMVI = test system: LOX IMVI
COLO 205 = test system: COLO 205
TK-10 = test system: TK-10
UACC-62 = test system: UACC-62
SF-295 = test system: SF-295
SNB-78 = test system: SNB-78
M19-MEL = test system: M19-MEL
CCRF-CEM = test system: CCRF-CEM
LXFL 529 = test system: LXFL 529
U-251 = test system: U-251
HOP-92 = test system: HOP-92
SW-620 = test system: SW-620
HT-29 = test system: HT-29
SF-268 = test system: SF-268
RPMI-8226 = test system: RPMI-8226
SNB-19 = test system: SNB-19
HCT-15 = test system: HCT-15
CAKI-1 = test system: CAKI-1
A498 = test system: A498
UO-31 = test system: UO-31
NCI-H522 = test system: NCI-H522
DMS-114 = test system: DMS-114
SN12C = test system: SN12C
OVCAR-8 = test system: OVCAR-8
SK-OV-3 = test system: SK-OV-3
SK-MEL-5 = test system: SK-MEL-5
SNB-75 = test system: SNB-75
OVCAR-3 = test system: OVCAR-3
MOLT-4 = test system: MOLT-4
HOP-18 = test system: HOP-18
DMS-273 = test system: DMS-273
HL-60 = test system: HL-60
NCI-H460 = test system: NCI-H460
Malme-3M = test system: Malme-3M
EKVX = test system: EKVX
RXF 631 = test system: RXF 631
SK-MEL-2 = test system: SK-MEL-2
M14 = test system: M14
NCI-H226 = test system: NCI-H226
OVCAR-5 = test system: OVCAR-5
UACC-257 = test system: UACC-257
HCC 2998 = test system: HCC 2998
HCT-116 = test system: HCT-116
KM12 = test system: KM12
RXF 393 = test system: RXF 393
OVCAR-4 = test system: OVCAR-4
A549 = test system: A549
786-0 = test system: 786-0
DLD-1 = test system: DLD-1
HOP-62 = test system: HOP-62
SR = test system: SR

## COc1ccc(C2SCc3nc4ccccc4n32)cc1 (centres undefined)
KM-20L2
  GI50: 2.4 µM (inactive)
IGROV-1
  GI50: 4.66 µM (inactive)
K562
  GI50: 2.34 µM (inactive)
SF-539
  GI50: 5.66 µM (inactive)
XF498
  GI50: 0.124 µM (active)
SK-MEL-28
  GI50: 4.32 µM (inactive)
NCI-H23
  GI50: 4.04 µM (inactive)
ACHN
  GI50: 5.04 µM (inactive)
LOX IMVI
  GI50: 5.78 µM (inactive)
COLO 205
  GI50: 2.73 µM (inactive)
TK-10
  GI50: 23.2 µM (inactive)
UACC-62
  GI50: 3.58 µM (inactive)
SF-295
  GI50: 2.94 µM (inactive)
SNB-78
  GI50: 8.95 µM (inactive)
M19-MEL
  GI50: 3.95 µM (inactive)
CCRF-CEM
  GI50: 3.49 µM (inactive)
LXFL 529
  GI50: 5.48 µM (inactive)
U-251
  GI50: 3.33 µM (inactive)
HOP-92
  GI50: 1.85 µM (inactive)
SW-620
  GI50: 3.44 µM (inactive)
HT-29
  GI50: 2.4 µM (inactive)
SF-268
  GI50: 5.43 µM (inactive)
RPMI-8226
  GI50: 2.96 µM (inactive)
SNB-19
  GI50: 6.07 µM (inactive)
HCT-15
  GI50: 3.16 µM
CAKI-1
  GI50: 2.21 µM (inactive)
A498
  GI50: 5.13 µM (inactive)
UO-31
  GI50: 10 µM (inactive)
NCI-H522
  GI50: 0.986 µM (active)
DMS-114
  GI50: 2.26 µM (inactive)
SN12C
  GI50: 4.41 µM (inactive)
OVCAR-8
  GI50: 6.07 µM (inactive)
SK-OV-3
  GI50: 3.5 µM (inactive)
SK-MEL-5
  GI50: 3.84 µM (inactive)
SNB-75
  GI50: 1.82 µM (inactive)
OVCAR-3
  GI50: 6.28 µM (inactive)
MOLT-4
  GI50: 3.37 µM (inactive)
HOP-18
  GI50: > 100 µM (inactive)
DMS-273
  GI50: 3.43 µM (inactive)
HL-60
  GI50: 1.91 µM (inactive)
NCI-H460
  GI50: 3.86 µM (inactive)
Malme-3M
  GI50: 7.55 µM (inactive)
EKVX
  GI50: 19.5 µM (inactive)
RXF 631
  GI50: 7.26 µM (inactive)
SK-MEL-2
  GI50: 3.9 µM (inactive)
M14
  GI50: 4.95 µM (inactive)
NCI-H226
  GI50: 8.99 µM (inactive)

## CCN(CC)C(=O)COc1ccc(Br)cc1Br
KM-20L2
  GI50: > 100 µM (inactive)
K562
  GI50: > 100 µM (inactive)
SF-539
  GI50: > 100 µM (inactive)
OVCAR-5
  GI50: > 100 µM (inactive)
SK-MEL-28
  GI50: > 100 µM (inactive)
UACC-257
  GI50: > 100 µM (inactive)
NCI-H23
  GI50: 82.6 µM (inactive)
ACHN
  GI50: > 100 µM (inactive)
LOX IMVI
  GI50: > 100 µM (inactive)
COLO 205
  GI50: > 100 µM (inactive)
TK-10
  GI50: > 100 µM (inactive)
HCC 2998
  GI50: > 100 µM (inactive)
HCT-116
  GI50: > 100 µM (inactive)
UACC-62
  GI50: 38.8 µM (inactive)
SF-295
  GI50: > 100 µM (inactive)
SNB-78
  GI50: > 100 µM (inactive)
M19-MEL
  GI50: > 100 µM (inactive)
CCRF-CEM
  GI50: > 100 µM (inactive)
LXFL 529
  GI50: > 100 µM (inactive)
U-251
  GI50: > 100 µM (inactive)
HOP-92
  GI50: 87.5 µM (inactive)
KM12
  GI50: > 100 µM (inactive)
SW-620
  GI50: > 100 µM (inactive)
HT-29
  GI50: > 100 µM (inactive)
SF-268
  GI50: > 100 µM (inactive)
RPMI-8226
  GI50: > 100 µM (inactive)
SNB-19
  GI50: > 100 µM (inactive)
HCT-15
  GI50: > 100 µM
CAKI-1
  GI50: > 100 µM (inactive)
RXF 393
  GI50: > 100 µM (inactive)
OVCAR-4
  GI50: > 100 µM (inactive)
A549
  GI50: > 100 µM (inactive)
A498
  GI50: > 100 µM (inactive)
UO-31
  GI50: > 100 µM (inactive)
NCI-H522
  GI50: 50.1 µM (inactive)
786-0
  GI50: > 100 µM (inactive)
DLD-1
  GI50: > 100 µM (inactive)
DMS-114
  GI50: > 100 µM (inactive)
SN12C
  GI50: > 100 µM (inactive)
SK-OV-3
  GI50: > 100 µM (inactive)
SK-MEL-5
  GI50: > 100 µM (inactive)
HOP-62
  GI50: > 100 µM (inactive)
SNB-75
  GI50: 83.6 µM (inactive)
OVCAR-3
  GI50: > 100 µM (inactive)
MOLT-4
  GI50: > 100 µM (inactive)
HOP-18
  GI50: > 100 µM (inactive)
DMS-273
  GI50: > 100 µM (inactive)
HL-60
  GI50: 83.9 µM (inactive)
NCI-H460
  GI50: > 100 µM (inactive)
Malme-3M
  GI50: > 100 µM (inactive)
SR
  GI50: > 100 µM (inactive)
EKVX
  GI50: 7.91 µM (inactive)
RXF 631
  GI50: > 100 µM (inactive)
SK-MEL-2
  GI50: > 100 µM (inactive)
M14
  GI50: > 100 µM (inactive)
NCI-H226
  GI50: > 100 µM (inactive)

## O=C(NC(=O)c1cn(CCN(CCO)C(=O)NCCCCCCNC(=O)N(CCO)CCn2cc(C(=O)NC(=O)OCc3ccccc3)c(=O)[nH]c2=O)c(=O)[nH]c1=O)OCc1ccccc1
KM-20L2
  GI50: > 100 µM (inactive)
IGROV-1
  GI50: > 100 µM (inactive)
K562
  GI50: > 100 µM (inactive)
SF-539
  GI50: > 100 µM (inactive)
OVCAR-5
  GI50: > 100 µM (inactive)
XF498
  GI50: > 100 µM (inactive)
SK-MEL-28
  GI50: > 100 µM (inactive)
UACC-257
  GI50: > 100 µM (inactive)
NCI-H23
  GI50: > 100 µM (inactive)
ACHN
  GI50: > 100 µM (inactive)
LOX IMVI
  GI50: > 100 µM (inactive)
COLO 205
  GI50: > 100 µM (inactive)
TK-10
  GI50: > 100 µM (inactive)
HCT-116
  GI50: > 100 µM (inactive)
UACC-62
  GI50: > 100 µM (inactive)
SF-295
  GI50: > 100 µM (inactive)
SNB-78
  GI50: > 100 µM (inactive)
M19-MEL
  GI50: > 100 µM (inactive)
CCRF-CEM
  GI50: > 100 µM (inactive)
U-251
  GI50: > 100 µM (inactive)
HOP-92
  GI50: > 100 µM (inactive)
SW-620
  GI50: > 100 µM (inactive)
HT-29
  GI50: > 100 µM (inactive)
RPMI-8226
  GI50: > 100 µM (inactive)
SNB-19
  GI50: > 100 µM (inactive)
HCT-15
  GI50: > 100 µM
CAKI-1
  GI50: > 100 µM (inactive)
RXF 393
  GI50: > 100 µM (inactive)
OVCAR-4
  GI50: > 100 µM (inactive)
A549
  GI50: > 100 µM (inactive)
UO-31
  GI50: > 100 µM (inactive)
786-0
  GI50: > 100 µM (inactive)
DLD-1
  GI50: > 100 µM (inactive)
DMS-114
  GI50: > 100 µM (inactive)
SN12C
  GI50: > 100 µM (inactive)
OVCAR-8
  GI50: > 100 µM (inactive)
SK-OV-3
  GI50: > 100 µM (inactive)
SK-MEL-5
  GI50: > 100 µM (inactive)
HOP-62
  GI50: > 100 µM (inactive)
SNB-75
  GI50: > 100 µM (inactive)
OVCAR-3
  GI50: > 100 µM (inactive)
MOLT-4
  GI50: > 100 µM (inactive)
HOP-18
  GI50: > 100 µM (inactive)
DMS-273
  GI50: > 100 µM (inactive)
HL-60
  GI50: > 100 µM (inactive)
NCI-H460
  GI50: > 100 µM (inactive)
Malme-3M
  GI50: > 100 µM (inactive)
EKVX
  GI50: > 100 µM (inactive)
RXF 631
  GI50: > 100 µM (inactive)
SK-MEL-2
  GI50: > 100 µM (inactive)
M14
  GI50: > 100 µM (inactive)
